This is an account of results in publication PMC8480782, “Efficient Dimerization Disruption of Leishmania infantum Trypanothione Reductase by Triazole-phenyl-thiazoles” (Journal of Medicinal Chemistry, 2021).

Where two headings read alike, the source gives them in different places.

For experiment [1], the system named is L. infantum intracellular amastigotes. Put plainly: Leishmanicidal activity in amastigote-infected THP-1 monocyte-derived macrophages. Type of experiment: cell-based, Leishmania infantum. The note with it: Leishmania infantum, THP-1, 72 h, read-out: EC50 intracellular amastigotes, amastigote-infected THP-1 macrophages, 72 h. On the procedure:
THP-1 monocytes were seeded in a 48-well plate at a concentration of 5 × 10^5 cells/mL (250 μL/well) in RPMI complete medium supplemented with phorbol 12-myristate 13-acetate (PMA) (100 ng/mL). Differentiation of THP-1 monocytes to macrophages was allowed for 24 h at 37 °C and 5% CO2. THP-1-derived macrophages were infected with GFP-expressing axenic amastigotes at 5 × 10^6 parasites/mL in RPMI complete medium for 24 h (250 μL/well). Extracellular amastigotes were washed twice with PBS. The remaining extracellular parasites were challenged for 24 h with THP-1 medium supplemented with 10% horse serum (Gibco) instead of FCS. Cells were washed twice with PBS, and treatments were performed in 250 μL of fresh RPMI medium supplemented with 10% horse serum for 72 h at 37 °C and 5% CO2. Afterward, treatments were removed by two PBS washes. Lysis of infected cells was performed with 120 μL of SDS 0.005% (w/v) in PBS. After a 30 min incubation at 37 °C, lysis was stopped by adding RPMI complete medium with PI at 20 μg/mL (120 μL/well). The lysates were transferred to a 96-well plate (200 μL/well), and the GFP^+ amastigotes extracted from the infected cells were acquired by a Beckman Coulter FC500 flow cytometer. Each sample (100 μL) was acquired for 20 s.
The relative number of GFP^+ intracellular amastigotes per cell in each sample was estimated after the division of the total number of GFP+ amastigotes by the LDH activity value of the sample. Results were normalized to the vehicle-treated controls. EC50 values of intracellular amastigotes were calculated using a nonlinear regression model with GraFit 6 software (Erithacus, Horley, Surrey, U.K.). All of the assays were conducted in at least three independent experiments.

Experiment [2] has as its target T1, LiTryR (Leishmania infantum, UniProt A4HSF7).
T1 construct: HIS (N); made in house; host or cells: E. coli BL21 (DE3) Rossetta
Nature of the experiment: Time-dependent inhibition kinetics of LiTryR (modified DTNB-coupled assay). The following applies: reaction progress curves / kinetic analysis. It is filed as biochemical. On the procedure: The inhibitory constants Ki and Ki* for 19a were calculated following a slightly modified version of the standard DTNB-coupled assay.[52] TS2 was serially diluted (sixfold dilution from 1666 to 52 μM) in a buffer containing 40 mM HEPES (pH 7.5) and 1 mM EDTA. The different TS2 solutions were dispensed (15 μL) in a 96-well microplate. 19a was serially diluted in DMSO (sixfold dilution from 1875 to 445 μM). […] These mixtures (180 μL) were subsequently added to the appropriate wells previously filled with different TS2 solutions. The assay was initiated by addition of 55 μL of buffer containing 40 mM HEPES (pH 7.5), 1 mM EDTA, 272.73 μM NADP^+, 0.01% glycerol, and 3.5 nM recombinant LiTryR using an automated dispensing system (PerkinElmer, Waltham, MA). The order of addition was essential to avoid enzyme preincubation with the inhibitor or the substrates. […] TryR oxidoreductase activity was monitored at 26 °C by an increase in absorbance at 412 nm in an EnSpire Multimode Plate Reader (PerkinElmer, Waltham, MA). Coupling an automated dispenser module to the spectrophotometer enabled real-time detection of the enzymatic reaction, which was crucial for high-quality nonlinear fits of the experimental data and, especially, to estimate the initial velocity of the progress curves in the presence of 19a. To guarantee linearity of the enzyme reaction in the absence of an inhibitor, the analysis was performed with data obtained during the first 20 000 s to avoid TS2 depletion. […] All of the assays were conducted in three independent experiments.
kobs values were estimated for every 19a concentration at all TS2 concentrations by fitting the values of the TNB concentration produced during each enzymatic reaction to eq 1.[42b],[53] [drawing 2] 1 where vi and vs are the initial and the steady-state velocities, respectively, kobs is the apparent first-order rate constant for the conversion of vi into the steady-state velocity (vs), and d is a parameter that indicates the displacement of the curve on the vertical ordinate and takes into account any nonzero value of the measured signal at time zero caused by some of the reagents. The apparent inhibition constants (Ki^app and Ki*^app) for each TS2 concentration were determined by fitting the kobs values obtained at different 19a concentrations to eq 2 [drawing 3] 2 where Ki^app is the apparent value of the Ki for the initial encounter complex (EI) and Ki*^app is the apparent value of the overall inhibition constant Ki* to form a higher-affinity complex (E*I). k6 is the first-order rate constant that defines the reverse isomerization step that returns E*I to EI.[42a],[53]
The Ki value for the formation of the EI complex was determined by fitting the Ki^app values obtained at different TS2 concentrations to eq 3. In addition, this graph was used to assess the inhibition modality of 19a during the first equilibrium of its two-step binding mechanism. […] In addition, this graph was used to assess the overall inhibition modality of 19a during its two-step binding mechanism. As explained above, the value obtained for α defines the mode of inhibition.[42a] [drawing 5] 4
Figure S1. […]
Lineweaver–Burk plots of reciprocal initial velocities ( vi) versus reciprocals of four TS2

Experiment [3] relates to L. infantum promastigotes. Nature of the experiment: Leishmanicidal activity on promastigotes (PI exclusion, flow cytometry). Type of experiment: cell-based, Leishmania infantum. The note with it: for EC50: Leishmania infantum. Summed up:
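Log-phase L. infantum promastigotes (MCAN/ES/89/IPZ229/1/89) at 2 × 10^6 parasites/mL in RPMI-1640 with 10% FCS, pH 7.2, were drug-treated for 24 h at 26 °C. Viability was scored by flow cytometric propidium iodide exclusion, and EC50 was derived by nonlinear regression.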
A general note: Flow cytometry measures light scatter and fluorescence of single cells or particles in a stream.

T1 sequence (A4HSF7 1-491): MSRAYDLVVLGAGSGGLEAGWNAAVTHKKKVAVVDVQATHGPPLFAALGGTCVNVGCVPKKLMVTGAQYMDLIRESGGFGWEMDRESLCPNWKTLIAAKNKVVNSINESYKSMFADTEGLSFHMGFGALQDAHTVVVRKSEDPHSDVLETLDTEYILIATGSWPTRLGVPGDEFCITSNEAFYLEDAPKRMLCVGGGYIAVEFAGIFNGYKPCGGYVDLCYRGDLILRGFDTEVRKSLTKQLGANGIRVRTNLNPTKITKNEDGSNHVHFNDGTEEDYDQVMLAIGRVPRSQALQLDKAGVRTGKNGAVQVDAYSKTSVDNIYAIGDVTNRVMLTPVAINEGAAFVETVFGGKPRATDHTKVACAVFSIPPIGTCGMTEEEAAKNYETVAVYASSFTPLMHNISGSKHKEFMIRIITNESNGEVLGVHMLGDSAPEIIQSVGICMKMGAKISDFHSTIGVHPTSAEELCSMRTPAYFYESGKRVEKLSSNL

Turning to `NCCCCc1cn(-c2ccc(-c3nc(CCc4ccc(-c5ccccc5)cc4)cs3)c(OCCN3CCNC3=O)c2)nn1.O=C(O)C(F)(F)F` [12c, 1-(2-(2-(4-(2-([1,1′-Biphenyl]-4-yl)ethyl)thiazol-2-yl)-5-(4-(4-ammoniumbutyl)-1H-1,2,3-triazol-1-yl)phenoxy)ethyl)imidazolidin-2-one 2,2,2-Trifluoroacetate], the concentration giving a half-maximal response (EC50) (in general, the midpoint of the concentration-response curve) in experiment [1] is 46.5 ± 1.5 µM; in experiment [3] (24 h at 26 °C, read-out: EC50 promastigotes), 4.9 ± 0.4 µM; in experiment [3] (promastigotes or amastigotes (either form), read-out: EC50 against Leishmania promastigotes or amastigotes) it was under 10 µM. For the same compound, in experiment [2], the “mechanism of LiTryR inhibition” value is on record as “slow-binding inhibitors”. In addition, the “SIp (ratio of EC50 against human cells to EC50 against promastigotes)” value in experiment [3] (HepG2 / promastigotes) was found to be 8.8.
